Test results as given in patent US8592580B2, “Substituted triazinone derivatives” (Sanofi, priority 2008, dated 2013).

Assays:
[1] = target: GSK3β (Homo sapiens, UniProt P49841); assay: Inhibitory activity against GSK3β (33P-ATP phosphorylation of prephosphorylated GS1 peptide, four protocols); type: biochemical; conditions: protocol 3: 7.5 μM GS1 peptide, 10 μM ATP, 50 mM Hepes pH 7.2, one hour at room temperature
Method: Inhibitory Activity of the Medicament of the Present Invention Against GSK3β Four different protocols can be used. In a first protocol: 7.5 μM of prephosphorylated GS1 peptide and 10 μM ATP (containing 300,000 cpm of ^33P-ATP) were incubated in 25 mM Tris-HCl, pH 7.5, 0.6 mM DTT, 6 mM MgCl2, 0.6 mM EGTA, 0.05 mg/ml BSA buffer for 1 hour at room temperature in the presence of GSK3beta (total reaction volume: 100 microliters). In a second protocol: 4.1 μM of prephosphorylated GS1 peptide and 42 μM ATP (containing 260,000 cpm ^33P-ATP) were incubated in 80 mM Mes-NaOH, pH 6.5, 1 mM Mg acetate, 0.5 mM EGTA, 5 mM 2-mercaptoethanol, 0.02% Tween 20, 10% glycerol buffer for 2 hours at room temperature in the presence of GSK3beta. In a third protocol: 7.5 μM of prephosphorylated GS1 peptide and 10 μM ATP (containing 300,000 cpm of ^33P-ATP) were incubated in 50 mM Hepes, pH 7.2, 1 mM DTT, 1 mM MgCl2, 1 mM EGTA, 0.01% Tween 20 buffer for one hour at room temperature in the presence of GSK3beta (total reaction volume: 100 microliters). […] Incorporated ^33P radioactivity was determined by liquid scintillation spectrometry. […]

GSK3β, sequence (P49841 whole entry): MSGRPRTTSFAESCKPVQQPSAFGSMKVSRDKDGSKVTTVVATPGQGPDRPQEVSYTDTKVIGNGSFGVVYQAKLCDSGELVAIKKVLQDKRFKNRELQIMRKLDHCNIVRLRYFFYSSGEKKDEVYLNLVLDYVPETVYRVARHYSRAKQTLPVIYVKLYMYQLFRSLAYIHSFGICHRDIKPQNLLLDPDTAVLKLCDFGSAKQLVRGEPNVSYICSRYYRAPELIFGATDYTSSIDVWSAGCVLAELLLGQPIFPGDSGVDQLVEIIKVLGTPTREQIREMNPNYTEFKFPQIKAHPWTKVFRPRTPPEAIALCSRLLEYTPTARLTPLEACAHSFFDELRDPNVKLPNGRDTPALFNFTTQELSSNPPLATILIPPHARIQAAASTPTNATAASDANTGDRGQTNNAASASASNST

| IC50 [1] | melting point | SMILES |
| --- | --- | --- |
| 0.372 µM | 242 to 244 °C | Cn1c(NCC(O)c2ccccc2)nc(-c2ccncc2)nc1=O (racemic) [Compound No. 1, (+/−)-6-(2-Hydroxy-2-phenyl-ethylamino)-1-methyl-4-pyridin-4-yl-1H-[1,3,5]triazin-2-one] |
| 0.05 µM | 235 to 237 °C | O=c1nc(-c2ccncc2)nc(NCCc2ccccc2)[nH]1 [compound 5, 6-(2-Phenylethyl)amino-4-pyridin-4-yl-1H-[1,3,5]triazin-2-one] |
